Test results taken from PubChem BioAssay AID1745844 (Carcinogenic Potency Database (CPDB), 2022).
Active and inactive are the calls of the source. The rule behind the calls is not given here.

System: rodent lifetime carcinogenesis bioassay, tumor incidence TD50
Test: carcinogenic potency in animals, long-term in vivo studies, CPDB compilation (AID 1745844)

ClCC=CCCl
TD50 (rat, strain Charles River CD (Sprague-Dawley), females, inhaled, site: nasal cavity, lesion: adenoma, dosed 51 weeks, study length 104 weeks): 13 mg/kg/day
TD50 (rat, strain Charles River CD (Sprague-Dawley), females, inhaled, site: nasal cavity, lesion: adenoma, dosed 104 weeks, study length 104 weeks): 0.695 mg/kg/day
TD50 (rat, strain Charles River CD (Sprague-Dawley), females, inhaled, site: nasal cavity, lesion: malignant tumor, dosed 51 weeks, study length 104 weeks): 0.242 mg/kg/day
TD50 (rat, strain Charles River CD (Sprague-Dawley), females, inhaled, site: nasal cavity, lesion: malignant tumor, dosed 104 weeks, study length 104 weeks): 8.32 mg/kg/day
TD50 (rat, strain Charles River CD (Sprague-Dawley), males, inhaled, site: nasal cavity, olfactory epithelium, lesion: adenocarcinoma, dosed 82 weeks, study length 104 weeks): 2 mg/kg/day
TD50 (rat, strain Charles River CD (Sprague-Dawley), males, inhaled, site: nasal cavity, olfactory epithelium, lesion: carcinoma, dosed 82 weeks, study length 104 weeks): 8.88 mg/kg/day
TD50 (rat, strain Charles River CD (Sprague-Dawley), males, inhaled, site: nasal cavity, olfactory epithelium, lesion: carcinosarcoma, dosed 82 weeks, study length 104 weeks): 8.88 mg/kg/day
TD50 (rat, strain Charles River CD (Sprague-Dawley), males, inhaled, site: nasal cavity, olfactory epithelium, lesion: malignant tumor, dosed 82 weeks, study length 104 weeks): 1.27 mg/kg/day
TD50 (rat, strain Charles River CD (Sprague-Dawley), males, inhaled, site: nasal cavity, respiratory epithelium, lesion: adenoma, dosed 82 weeks, study length 104 weeks): 0.653 mg/kg/day
TD50 (rat, strain Charles River CD (Sprague-Dawley), males, inhaled, site: nasal cavity, lesion: adenoma, dosed 51 weeks, study length 104 weeks): 23.2 mg/kg/day
TD50 (rat, strain Charles River CD (Sprague-Dawley), males, inhaled, site: nasal cavity, lesion: adenoma, dosed 104 weeks, study length 104 weeks): 0.313 mg/kg/day
TD50 (rat, strain Charles River CD (Sprague-Dawley), males, inhaled, site: nasal cavity, lesion: malignant tumor, dosed 51 weeks, study length 104 weeks): 0.169 mg/kg/day
TD50 (rat, strain Charles River CD (Sprague-Dawley), males, inhaled, site: nasal cavity, lesion: malignant tumor, dosed 104 weeks, study length 104 weeks): 1.04 mg/kg/day
TD50 (rat, strain Charles River CD (Sprague-Dawley), males, inhaled, site: nasal cavity, lesion: several types, types named in the paper, dosed 82 weeks, study length 104 weeks): 0.467 mg/kg/day

NC(=O)N(CCF)N=O
TD50 (rat, strain Fischer 344, males, by gavage, site: forestomach, lesion: one or several types, types not named, dosed 40 weeks, study length 104 weeks): 0.125 mg/kg/day
TD50 (rat, strain Fischer 344, males, by gavage, site: lung, lesion: several types, types named in the paper, dosed 40 weeks, study length 104 weeks): 0.279 mg/kg/day

O=C1OC2(c3ccccc31)c1cc(I)c(O)c(I)c1Oc1c2cc(I)c(O)c1I
carcinogen call (mouse, strain Charles River CD1, females, in feed, site: any site (literature study), lesion: benign tumor, dosed 104 weeks, study length 104 weeks): negative (inactive)
carcinogen call (mouse, strain Charles River CD1, females, in feed, site: any site (literature study), lesion: malignant tumor, dosed 104 weeks, study length 104 weeks): negative (inactive)
carcinogen call (mouse, strain Charles River CD1, females, in feed, site: any site (literature study), lesion: several types, types named in the paper, dosed 104 weeks, study length 104 weeks): negative (inactive)
TD50 (mouse, strain Charles River CD1, males, in feed, site: all sites, lesion: lymphocytic lymphoma, dosed 104 weeks, study length 104 weeks): 3140 mg/kg/day (inactive)
TD50 (mouse, strain Charles River CD1, males, in feed, site: any site (literature study), lesion: benign tumor, dosed 104 weeks, study length 104 weeks): 25900 mg/kg/day (inactive)
TD50 (mouse, strain Charles River CD1, males, in feed, site: any site (literature study), lesion: malignant tumor, dosed 104 weeks, study length 104 weeks): 87600 mg/kg/day (inactive)
TD50 (mouse, strain Charles River CD1, males, in feed, site: any site (literature study), lesion: several types, types named in the paper, dosed 104 weeks, study length 104 weeks): 17000 mg/kg/day
TD50 (rat, strain Osborne-Mendel, both sexes, by gavage, site: all sites, lesion: lymphosarcoma, dosed 85 weeks, study length 104 weeks): 122 mg/kg/day (inactive)
carcinogen call (rat, strain Osborne-Mendel, both sexes, by gavage, site: any site (literature study), lesion: malignant tumor, dosed 85 weeks, study length 104 weeks): negative (inactive)
carcinogen call (rat, strain Osborne-Mendel, both sexes, by gavage, site: liver, lesion: one or several types, types not named, dosed 85 weeks, study length 104 weeks): negative (inactive)
TD50 (rat, strain Osborne-Mendel, both sexes, in feed, site: any site (literature study), lesion: malignant tumor, dosed 86 weeks, study length 104 weeks): 14100 mg/kg/day (inactive)
TD50 (rat, strain Osborne-Mendel, both sexes, in feed, site: liver, lesion: hepatoma, dosed 86 weeks, study length 104 weeks): 84900 mg/kg/day (inactive)
carcinogen call (rat, strain Osborne-Mendel, females, in feed, site: any site (literature study), lesion: several types, types named in the paper, dosed 104 weeks, study length 104 weeks): negative (inactive)
TD50 (rat, strain Osborne-Mendel, males, in feed, site: any site (literature study), lesion: several types, types named in the paper, dosed 104 weeks, study length 104 weeks): 4810 mg/kg/day (inactive)
carcinogen call (rat, strain Slc-Wistar, females, in feed, site: any site (literature study), lesion: several types, types named in the paper, dosed 52 weeks, study length 52 weeks): negative (inactive)
carcinogen call (rat, strain Slc-Wistar, females, in feed, site: liver, lesion: one or several types, types not named, dosed 52 weeks, study length 52 weeks): negative (inactive)
carcinogen call (rat, strain Slc-Wistar, males, in feed, site: any site (literature study), lesion: several types, types named in the paper, dosed 52 weeks, study length 52 weeks): negative (inactive)
carcinogen call (rat, strain Slc-Wistar, males, in feed, site: liver, lesion: one or several types, types not named, dosed 52 weeks, study length 52 weeks): negative (inactive)
carcinogen call (rat, strain Sprague-Dawley, females, in feed, site: any site (literature study), lesion: one or several types, types not named, dosed 52 weeks, study length 52 weeks): negative (inactive)
carcinogen call (rat, strain Sprague-Dawley, females, in feed, site: liver, lesion: one or several types, types not named, dosed 52 weeks, study length 52 weeks): negative (inactive)

C=CN1CCCC1=O
TD50 (rat, strain Charles River CD (Sprague-Dawley), females, inhaled, site: any site (literature study), lesion: malignant tumor, dosed 104 weeks, study length 104 weeks): 6.12 mg/kg/day
TD50 (rat, strain Charles River CD (Sprague-Dawley), females, inhaled, site: larynx, lesion: squamous-cell carcinoma, dosed 104 weeks, study length 104 weeks): 120 mg/kg/day
TD50 (rat, strain Charles River CD (Sprague-Dawley), females, inhaled, site: liver, lesion: hepatocellular carcinoma, dosed 104 weeks, study length 104 weeks): 12.3 mg/kg/day
TD50 (rat, strain Charles River CD (Sprague-Dawley), females, inhaled, site: nasal cavity, olfactory epithelium, lesion: adenocarcinoma, dosed 104 weeks, study length 104 weeks): 120 mg/kg/day
TD50 (rat, strain Charles River CD (Sprague-Dawley), females, inhaled, site: nasal cavity, respiratory epithelium, lesion: adenoma, dosed 52 weeks, study length 52 weeks): 19.8 mg/kg/day
TD50 (rat, strain Charles River CD (Sprague-Dawley), females, inhaled, site: nasal cavity, respiratory epithelium, lesion: adenoma, dosed 104 weeks, study length 104 weeks): 20.4 mg/kg/day
TD50 (rat, strain Charles River CD (Sprague-Dawley), males, inhaled, site: any site (literature study), lesion: malignant tumor, dosed 104 weeks, study length 104 weeks): 5 mg/kg/day
TD50 (rat, strain Charles River CD (Sprague-Dawley), males, inhaled, site: any site (literature study), lesion: several types, types named in the paper, dosed 104 weeks, study length 104 weeks): 1.99 mg/kg/day
TD50 (rat, strain Charles River CD (Sprague-Dawley), males, inhaled, site: larynx, lesion: squamous-cell carcinoma, dosed 104 weeks, study length 104 weeks): 84 mg/kg/day
TD50 (rat, strain Charles River CD (Sprague-Dawley), males, inhaled, site: liver, lesion: hepatocellular carcinoma, dosed 104 weeks, study length 104 weeks): 12 mg/kg/day
TD50 (rat, strain Charles River CD (Sprague-Dawley), males, inhaled, site: nasal cavity, olfactory epithelium, lesion: adenocarcinoma, dosed 104 weeks, study length 104 weeks): 32.9 mg/kg/day
TD50 (rat, strain Charles River CD (Sprague-Dawley), males, inhaled, site: nasal cavity, respiratory epithelium, lesion: adenoma, dosed 52 weeks, study length 52 weeks): 8.56 mg/kg/day
TD50 (rat, strain Charles River CD (Sprague-Dawley), males, inhaled, site: nasal cavity, respiratory epithelium, lesion: adenoma, dosed 104 weeks, study length 104 weeks): 11.7 mg/kg/day

O=C1CCCCC1
TD50 (mouse, strain B6C3F1, females, in drinking water, site: all sites, lesion: malignant lymphoma, dosed 104 weeks, study length 107 weeks): 3690 mg/kg/day
TD50 (rat, strain Fischer 344, females, in drinking water, site: liver, lesion: neoplastic nodule, dosed 104 weeks, study length 107 weeks): 6300 mg/kg/day
TD50 (rat, strain Fischer 344, males, in drinking water, site: adrenal gland, lesion: cortical adenoma, dosed 104 weeks, study length 107 weeks): 929 mg/kg/day

Oc1ccc(O)cc1
TD50 (mouse, strain B6C3F1, females, by gavage, site: liver, lesion: hepatocellular adenoma + hepatocellular carcinoma + neoplastic nodule, dosed 103 weeks, study length 105 weeks): 122 mg/kg/day
TD50 (mouse, strain B6C3F1, females, by gavage, site: liver, lesion: hepatocellular adenoma + hepatocellular carcinoma, dosed 103 weeks, study length 105 weeks): 122 mg/kg/day
TD50 (mouse, strain B6C3F1, females, by gavage, site: liver, lesion: hepatocellular adenoma, dosed 103 weeks, study length 105 weeks): 65 mg/kg/day
TD50 (mouse, strain B6C3F1, females, by gavage, site: lung, lesion: alveolar/bronchiolar adenoma + alveolar/bronchiolar carcinoma, dosed 103 weeks, study length 105 weeks): 19200 mg/kg/day
TD50 (mouse, strain B6C3F1, females, in feed, site: liver, lesion: hepatocellular adenoma, dosed 96 weeks, study length 96 weeks): 17900 mg/kg/day
TD50 (mouse, strain B6C3F1, males, by gavage, site: any site (literature study), lesion: several types, types named in the paper, dosed 103 weeks, study length 104 weeks): 497 mg/kg/day (inactive)
TD50 (mouse, strain B6C3F1, males, by gavage, site: liver, lesion: hepatocellular adenoma + hepatocellular carcinoma + neoplastic nodule, dosed 103 weeks, study length 104 weeks): 383 mg/kg/day
TD50 (mouse, strain B6C3F1, males, in feed, site: kidney, lesion: adenoma, dosed 96 weeks, study length 96 weeks): 5320 mg/kg/day
TD50 (mouse, strain B6C3F1, males, in feed, site: liver, lesion: hepatocellular adenoma, dosed 96 weeks, study length 96 weeks): 1450 mg/kg/day
TD50 (rat, strain F344/DuCrj, females, in feed, site: liver, lesion: hepatocellular carcinoma, dosed 104 weeks, study length 104 weeks): 8080 mg/kg/day
TD50 (rat, strain F344/DuCrj, males, in feed, site: kidney, lesion: adenoma, dosed 104 weeks, study length 104 weeks): 349 mg/kg/day
TD50 (rat, strain Fischer 344, females, by gavage, site: all sites, lesion: mononuclear-cell leukemia, dosed 103 weeks, study length 104 weeks): 55.8 mg/kg/day
TD50 (rat, strain Fischer 344, females, by gavage, site: any site (literature study), lesion: several types, types named in the paper, dosed 103 weeks, study length 104 weeks): 51.6 mg/kg/day
TD50 (rat, strain Fischer 344, males, by gavage, site: adrenal medulla, lesion: pheochromocytoma benign, bilateral + pheochromocytoma, benign, dosed 103 weeks, study length 104 weeks): 48.2 mg/kg/day
TD50 (rat, strain Fischer 344, males, by gavage, site: adrenal medulla, lesion: pheochromocytoma benign, bilateral + pheochromocytoma, malignant + pheochromocytoma, benign, dosed 103 weeks, study length 104 weeks): 40.4 mg/kg/day
TD50 (rat, strain Fischer 344, males, by gavage, site: any site (literature study), lesion: several types, types named in the paper, dosed 103 weeks, study length 104 weeks): 41.8 mg/kg/day
TD50 (rat, strain Fischer 344, males, by gavage, site: kidney, lesion: tubule adenoma, dosed 103 weeks, study length 104 weeks): 64.7 mg/kg/day
TD50 (rat, strain Fischer 344, males, by gavage, site: liver, lesion: hepatocellular adenoma + hepatocellular carcinoma + neoplastic nodule, dosed 103 weeks, study length 104 weeks): 5710 mg/kg/day

CCC[N+](=O)[O-]
carcinogen call (rat, strain Long-Evans BLU:(LE), females, inhaled, site: liver, lesion: hepatocellular carcinoma, dosed 52 weeks, study length 52 weeks): negative (inactive)
carcinogen call (rat, strain Long-Evans BLU:(LE), females, inhaled, site: liver, lesion: hepatocellular carcinoma, dosed 52 weeks, study length 93 weeks): negative (inactive)
carcinogen call (rat, strain Long-Evans BLU:(LE), females, inhaled, site: liver, lesion: hepatocellular carcinoma, dosed 78 weeks, study length 78 weeks): negative (inactive)
carcinogen call (rat, strain Long-Evans BLU:(LE), females, inhaled, site: liver, lesion: hepatocellular carcinoma, dosed 93 weeks, study length 93 weeks): negative (inactive)
carcinogen call (rat, strain Long-Evans BLU:(LE), males, inhaled, site: liver, lesion: hepatocellular carcinoma, dosed 52 weeks, study length 52 weeks): negative (inactive)
carcinogen call (rat, strain Long-Evans BLU:(LE), males, inhaled, site: liver, lesion: hepatocellular carcinoma, dosed 52 weeks, study length 93 weeks): negative (inactive)
carcinogen call (rat, strain Long-Evans BLU:(LE), males, inhaled, site: liver, lesion: hepatocellular carcinoma, dosed 78 weeks, study length 78 weeks): negative (inactive)
carcinogen call (rat, strain Long-Evans BLU:(LE), males, inhaled, site: liver, lesion: hepatocellular carcinoma, dosed 93 weeks, study length 93 weeks): negative (inactive)
TD50 (rat, strain Sprague-Dawley, males, by gavage, site: liver, lesion: hepatocellular adenoma, dosed 26 weeks, study length 77 weeks): 0.872 mg/kg/day (inactive)
